Measurements reported in paper PMC8225008, “Development of Non-Ethoxypropanoic Acid Type Cryptochrome Inhibitors with Circadian Molecular Clock-Enhancing Activity by Bioisosteric Replacement” (Pharmaceuticals, 2021).

Legend:
[1] = Metabolic stability test in pooled human liver microsomes; type: in vitro ADME; conditions: pooled HLMs 1.0 mg/mL, 1 μM compound, NADPH generating system, read-out: t1/2 in HLMs
Experimental: The metabolic stability of KS15, 5d, or 2d was evaluated using pooled HLMs. Pooled HLMs (1.0 mg/mL), a potassium phosphate buffer, and a test compound (1 μM) were pre-incubated (37 °C, 5 min). To initiate the reaction, the NADPH generating system was added to the samples and incubated for specific time points (0, 5, 15, 20, 45, and 60 min). Then, aliquots were taken and reactions terminated in acetonitrile containing IS. After centrifugation, supernatants were analyzed using LC-MS/MS to determine KS15, 5d, or 2d concentrations in samples. Analyte separation was performed using a Kinetex C18 column (100 mm × 2.1 mm, 2.6 μm ID., Phenomenex). The mobile phase solvent A was 0.1% formic acid in water, and solvent B was 0.1% formic acid in acetonitrile. Gradient separation was performed as follows: 0–3 min (10–90% B) and 3.1–8 min (10% B). The flow rate was 0.2 mL/min, and the run time was 8 min for each sample. Electrospray ionization was conducted in positive ion mode at 4 kV. […] Quantitation was performed in the SRM of the [M+H]^+ ion and the related product ion for each test compound and IS: KS-15 (m/z 420 > 169, CE 30 eV), 5d (m/z 359 > 206, CE 20 eV), 2d (m/z 345 > 192, CE 22 eV), and IS (m/z 295 > 100, CE 17 eV).
The EC50 values for luciferase reporter assay were calculated based on a logistic four-parametric equation using the mean values of intrinsic activation (SigmaPlot 10.0; Systat Software Inc., San Jose, CA, USA). The IC50 and t1/2 values for the cytochrome P450 inhibition assay and metabolic stability test were calculated by WinNonlin software (Pharsight, Mountain View, CA, USA). Pharmacokinetic parameters were calculated using non-compartmental analysis (WinNonlin v.8.3; Pharsight, Mountain View, CA, USA). […] Circadian molecular clock-enhancing activities were expressed as means ± SE and statistically evaluated by Student’s t-test or one-way analysis of variance (ANOVA) followed by Newman–Keuls multiple comparison test for post hoc comparisons. […]

[2] = test system: Per2-luciferase knock-in (Per2-Luc-KI) fibroblast cultures; test: Real-time bioluminescence monitoring of DEX-synchronized Per2-Luc-KI fibroblast cultures; type: cell-based, mouse; conditions: 20 μM, DEX-synchronized Per2-Luc-KI fibroblasts
Experimental: For real-time bioluminescence monitoring, we used mouse embryonic fibroblast (MEF) cultures established from Per2-LUC-KI mice. […] The medium was then replaced with a recording medium containing 0.1 mM D-luciferin (Promega) along with vehicle (0.1% DMSO), KS15 (20 μM), 5d (20 μM), or 2d (20 μM). Light emission for 2 min at intervals of 20 min was integrated using a dish-type wheeled luminometer (Kronos-Dio, ATTO Cooperation, Tokyo, Japan). Background-subtracted bioluminescence profiles were analyzed using Cosinor analysis software (available at http://www.circadian.org, last accessed on 19 May 2021).
(§1) The EC50 values for luciferase reporter assay were calculated based on a logistic four-parametric equation using the mean values of intrinsic activation (SigmaPlot 10.0; Systat Software Inc., San Jose, CA, USA). The IC50 and t1/2 values for the cytochrome P450 inhibition assay and metabolic stability test were calculated by WinNonlin software (Pharsight, Mountain View, CA, USA). Pharmacokinetic parameters were calculated using non-compartmental analysis (WinNonlin v.8.3; Pharsight, Mountain View, CA, USA). Kinetic and equilibrium constants for SPR analysis were obtained by global fitting of the Langmuir 1:1 bimolecular kinetic model (ProteOn Manager v.3.1.0.6, Bio-Rad, Hercules, CA, USA). Circadian molecular clock-enhancing activities were expressed as means ± SE and statistically evaluated by Student’s t-test or one-way analysis of variance (ANOVA) followed by Newman–Keuls multiple comparison test for post hoc comparisons. The significance level for the analyses was set at p < 0.05.

hCRY1 = target: T1, hCRY1 (Homo sapiens, UniProt Q16526); test: Suppressive action of CRY1 on CLOCK:BMAL1-activated E-box-LUC reporter activity in transiently transfected HEK293T cells; type: cell-based; set-up: expressed in transfected cells; host or cells: HEK293T; conditions: co-expression of human CRY1, 36 h treatment
T1 sequence (Q16526 1-586): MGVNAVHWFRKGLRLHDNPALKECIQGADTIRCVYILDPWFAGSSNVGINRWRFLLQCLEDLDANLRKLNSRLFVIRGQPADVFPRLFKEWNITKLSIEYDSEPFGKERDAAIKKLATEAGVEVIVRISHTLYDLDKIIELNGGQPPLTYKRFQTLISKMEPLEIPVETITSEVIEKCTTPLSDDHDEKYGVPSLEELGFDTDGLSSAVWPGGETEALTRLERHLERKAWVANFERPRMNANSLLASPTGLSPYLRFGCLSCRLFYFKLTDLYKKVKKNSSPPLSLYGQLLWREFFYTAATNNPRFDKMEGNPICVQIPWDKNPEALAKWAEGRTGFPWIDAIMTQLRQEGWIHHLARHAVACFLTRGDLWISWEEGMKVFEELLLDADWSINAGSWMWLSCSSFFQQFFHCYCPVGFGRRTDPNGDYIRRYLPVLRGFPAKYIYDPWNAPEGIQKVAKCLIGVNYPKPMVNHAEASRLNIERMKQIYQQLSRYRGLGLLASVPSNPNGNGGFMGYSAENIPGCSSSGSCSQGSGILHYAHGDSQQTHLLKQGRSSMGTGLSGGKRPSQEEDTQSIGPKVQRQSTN
Experimental: (§2) Materials for cell culture were purchased from Thermo Fisher Scientific, unless otherwise stated. NIH3T3 and HEK293T cells were maintained in Dulbecco’s modified Eagle medium supplemented with 5% fetal bovine serum and 100 U/mL penicillin/streptomycin in a humidified atmosphere containing 5% CO2 at 37 °C. Plasmids and transfection experiments for luciferase reporter assay were described in our previous report. For dose-response experiments, mouse NIH3T3 cells stably transfected with an E-box-LUC reporter were plated in 12-well culture plates, treated as indicated for 36 h, and subjected to luciferase assay. For transient transfections, we seeded HEK293T cells in 12-well culture plates and used Lipofectamine® 3000 reagent to transfect cells with the E-box-LUC reporter and the indicated clock gene expression plasmids together with a thymidine kinase promoter-driven Renilla luciferase (pRL-TK) plasmids. We kept total DNA levels constant by adding an empty pcDNA3.1 plasmid. After 24 h of transfection, cells were treated with vehicle (0.1% DMSO) or chemical compounds at various concentrations for 36 h. Cell extracts were prepared by incubating cells in 0.3 mL reporter lysis buffer for 15 min at room temperature. Luciferase activity was measured with a commercial dual luciferase assay kit (Promega, Madison, WI, USA).

E-box-LUC reporter = test: E-box-LUC luciferase reporter assay, dose-response in stably transfected NIH3T3 cells; type: cell-based; conditions: Mus musculus, E-box-LUC reporter activity, NIH3T3, 36 h; for Emax: maximum response as a percentage of the vehicle-treated group, read-out: Max (%)
Experimental: as §2, §1

Row | Compound | half-life at 1 μM [1] [min] | Amplitude of cyclic Per2 expression [2] | Robustness of the rhythm (Cosinor regression) [2] | Effect on CRY1-suppressed CLOCK:BMAL1-activated E-box-mediated transcription (hCRY1) | EC50 (E-box-LUC reporter) [µM] | Emax (E-box-LUC reporter) [%]
1 | CC(=NOCc1ccc([N+](=O)[O-])cc1)c1cccc(OCC(=O)O)c1 [Compound 2d, 2-(3-(1-(((4-nitrobenzyl)oxy)imino)ethyl)phenoxy)acetic acid] | > 60 | significantly augmented the amplitude | barely affect the robustness | dose-dependently restored E-box-mediated transcriptional activities | 10.2 | 161
2 | COC(=O)COc1cccc(C(C)=NOCc2ccc([N+](=O)[O-])cc2)c1 [Compound 5d, Methyl 2-(3-(1-(((4-nitrobenzyl)oxy)imino)ethyl)phenoxy)acetate] | 2.4 | significantly augmented the amplitude | barely affect the robustness | dose-dependently restored E-box-mediated transcriptional activities | 6.44 | 193
